In ChEMBL document CHEMBL5696439 (Cancer Res, 2010):
Calls of active or inactive are those of the source. The calls are words filed in the database; no cut-off is given here.

Tests used:
[1] = molecular target: Protein kinase C epsilon type (Homo sapiens) (UniProt Q02156); assay: Inhibition of recombinant human full length GST-tagged PRKCE expressed in insect cells at 2 uM using Ser/Thr 07 as substrate measured after 1 hr by Z'-LYTE assay relative to control; conditions: Insect cell
MDA-MB-361 [2] = assay: Induction of apoptosis in human MDA-MB-361 cells assessed as little increase in G1 phase at 5 micromol/L incubated for 12 hrs by FACS analysis relative to control; format: functional, cell-based; conditions: dose 5.0 µmol/L
[3] = molecular target: High affinity nerve growth factor receptor (Homo sapiens) (UniProt P04629); assay: Inhibition of recombinant human His-tagged NTRK1 (441-796 residues) expressed in insect cells at 2 uM using Tyr 01 as substrate measured after 1 hr by Z'-LYTE assay relative to control; conditions: Insect cell
Chain of High affinity nerve growth factor receptor (Homo sapiens) (P04629 33-796 limits assumed): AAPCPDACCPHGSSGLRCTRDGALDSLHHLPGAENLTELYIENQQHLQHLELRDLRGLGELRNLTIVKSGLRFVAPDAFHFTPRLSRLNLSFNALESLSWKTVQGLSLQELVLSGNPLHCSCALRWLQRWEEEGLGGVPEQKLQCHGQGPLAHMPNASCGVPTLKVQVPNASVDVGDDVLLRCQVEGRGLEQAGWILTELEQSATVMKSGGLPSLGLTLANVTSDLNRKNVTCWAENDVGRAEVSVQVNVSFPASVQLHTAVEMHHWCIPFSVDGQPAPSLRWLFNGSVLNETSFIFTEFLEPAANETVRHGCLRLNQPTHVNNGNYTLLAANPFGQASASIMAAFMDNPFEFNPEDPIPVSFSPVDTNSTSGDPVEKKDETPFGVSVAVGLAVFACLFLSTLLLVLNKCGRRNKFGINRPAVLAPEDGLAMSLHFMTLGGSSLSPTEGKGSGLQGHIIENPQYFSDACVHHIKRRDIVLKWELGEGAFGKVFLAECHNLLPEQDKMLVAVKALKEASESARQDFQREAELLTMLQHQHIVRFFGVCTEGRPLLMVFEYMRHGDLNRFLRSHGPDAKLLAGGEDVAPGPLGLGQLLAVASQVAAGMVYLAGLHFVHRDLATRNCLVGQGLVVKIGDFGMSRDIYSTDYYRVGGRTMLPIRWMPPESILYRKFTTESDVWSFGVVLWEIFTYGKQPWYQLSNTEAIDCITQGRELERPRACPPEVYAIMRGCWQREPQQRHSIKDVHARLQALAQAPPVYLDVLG

[4] = molecular target: Dual specificity protein kinase CLK3 (Homo sapiens) (UniProt P49761); assay: Inhibition of recombinant human full-length GST-tagged CLK3 expressed in insect cells at 2 uM using Ser/Thr 18 as substrate measured after 1 hr by Z'-LYTE assay relative to control; conditions: Insect cell
A549 = assay: Antitumor activity against human A549 cells xenografted in female nude mouse model assessed as inhibition in tumor growth at 10 to 50 mg/kg, po qd administered as 5 days on/2 days off regimen for 4 cycles; format: functional, organism-based; conditions: dose 10-50 mg/kg, time 28.0 day
[5] = molecular target: Vascular endothelial growth factor receptor 1 (Homo sapiens) (UniProt P17948); assay: Inhibition of recombinant human GST-tagged FLT1 (781-1338 residues) expressed in insect cells at 2 uM using Tyr 04 as substrate measured after 1 hr by Z'-LYTE assay relative to control; conditions: Insect cell
[6] = molecular target: Misshapen-like kinase 1 (Homo sapiens) (UniProt Q8N4C8); assay: Inhibition of recombinant human GST-tagged MINK1 (1-320 residues) expressed in insect cells at 2 uM using Ser/Thr 07 as substrate measured after 1 hr by Z'-LYTE assay relative to control; conditions: Insect cell
[7] = molecular target: Tyrosine-protein kinase SYK (Homo sapiens) (UniProt P43405); assay: Inhibition of recombinant human full length GST-tagged SYK expressed in baculovirus expression system at 2 uM using […] as substrate measured after 1 hr by Z'-LYTE assay relative to control
[8] = molecular target: Inhibitor of nuclear factor kappa-B kinase subunit beta (Homo sapiens) (UniProt O14920); assay: Inhibition of recombinant human full-length GST-tagged IKBKB expressed in insect cells at 2 uM using Ser/Thr 05 as substrate measured after 1 hr by Z'-LYTE assay relative to control; conditions: Insect cell
Chain of Inhibitor of nuclear factor kappa-B kinase subunit beta (Homo sapiens) (O14920 whole entry): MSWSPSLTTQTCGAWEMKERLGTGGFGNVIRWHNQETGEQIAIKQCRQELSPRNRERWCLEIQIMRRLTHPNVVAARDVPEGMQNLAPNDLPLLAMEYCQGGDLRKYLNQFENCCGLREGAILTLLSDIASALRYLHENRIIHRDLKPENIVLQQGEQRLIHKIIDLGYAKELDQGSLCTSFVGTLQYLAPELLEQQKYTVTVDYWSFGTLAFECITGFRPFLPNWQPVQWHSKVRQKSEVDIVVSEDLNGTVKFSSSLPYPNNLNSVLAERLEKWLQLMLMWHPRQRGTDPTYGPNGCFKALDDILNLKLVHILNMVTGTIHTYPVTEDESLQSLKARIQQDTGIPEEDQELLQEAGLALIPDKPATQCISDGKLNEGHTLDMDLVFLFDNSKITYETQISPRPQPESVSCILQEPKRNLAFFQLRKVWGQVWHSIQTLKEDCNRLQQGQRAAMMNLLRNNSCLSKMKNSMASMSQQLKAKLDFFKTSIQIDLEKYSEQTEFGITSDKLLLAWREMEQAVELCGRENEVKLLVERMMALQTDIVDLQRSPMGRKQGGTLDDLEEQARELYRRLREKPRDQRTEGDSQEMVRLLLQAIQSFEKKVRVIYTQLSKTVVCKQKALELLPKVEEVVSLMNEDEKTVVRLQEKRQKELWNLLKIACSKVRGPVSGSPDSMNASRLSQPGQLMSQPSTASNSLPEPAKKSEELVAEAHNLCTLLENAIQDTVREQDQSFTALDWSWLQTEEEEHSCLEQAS

mTORC2 (Homo sapiens) [9] = molecular target: T1, mTORC2 (Homo sapiens) (UniProt P42345+Q6R327+Q9BVC4+Q9BPZ7); conditions: U-87 MG, dose 0.025-2 µmol/L, time 6.0 hrs
[10] = molecular target: Ephrin type-A receptor 2 (Homo sapiens) (UniProt P29317); assay: Inhibition of recombinant human GST-tagged EPHA2 (568-976 residues) expressed in insect cells at 2 uM using Tyr 01 as substrate measured after 1 hr by Z'-LYTE assay relative to control; conditions: Insect cell
Chain of Ephrin type-A receptor 2 (Homo sapiens) (P29317 whole entry, the tested form may be a part): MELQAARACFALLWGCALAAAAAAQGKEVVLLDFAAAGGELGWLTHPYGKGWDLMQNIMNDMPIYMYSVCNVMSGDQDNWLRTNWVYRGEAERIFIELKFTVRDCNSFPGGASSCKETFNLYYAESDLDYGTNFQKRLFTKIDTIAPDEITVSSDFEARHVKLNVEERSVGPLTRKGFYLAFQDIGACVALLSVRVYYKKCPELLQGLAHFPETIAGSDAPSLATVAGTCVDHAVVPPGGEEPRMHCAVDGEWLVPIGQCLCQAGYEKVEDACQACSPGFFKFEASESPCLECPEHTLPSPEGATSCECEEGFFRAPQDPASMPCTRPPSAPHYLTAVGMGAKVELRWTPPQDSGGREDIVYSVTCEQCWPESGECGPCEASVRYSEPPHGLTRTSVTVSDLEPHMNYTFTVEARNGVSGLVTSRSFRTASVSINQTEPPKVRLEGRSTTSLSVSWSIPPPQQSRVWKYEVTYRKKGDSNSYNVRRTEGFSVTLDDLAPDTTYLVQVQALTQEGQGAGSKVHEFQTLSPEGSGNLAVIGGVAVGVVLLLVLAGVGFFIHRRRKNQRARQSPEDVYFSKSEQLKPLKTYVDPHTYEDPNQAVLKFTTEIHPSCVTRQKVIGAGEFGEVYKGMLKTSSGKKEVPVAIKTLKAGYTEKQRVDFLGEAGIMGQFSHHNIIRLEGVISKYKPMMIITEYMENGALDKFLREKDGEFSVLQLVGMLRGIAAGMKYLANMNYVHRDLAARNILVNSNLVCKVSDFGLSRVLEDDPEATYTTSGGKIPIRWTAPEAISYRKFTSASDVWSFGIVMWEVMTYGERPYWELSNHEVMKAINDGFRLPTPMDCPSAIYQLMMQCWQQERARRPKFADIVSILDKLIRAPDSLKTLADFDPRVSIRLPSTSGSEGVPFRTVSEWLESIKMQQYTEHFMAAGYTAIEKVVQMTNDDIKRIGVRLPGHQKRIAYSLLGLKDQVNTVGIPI

[11] = molecular target: Tyrosine-protein kinase CSK (Homo sapiens) (UniProt P41240); assay: Inhibition of recombinant human full-length His-tagged CSK expressed in E. coli at 2 uM using Tyr 02 as substrate measured after 1 hr by Z'-LYTE assay relative to control
Chain of Tyrosine-protein kinase CSK (Homo sapiens) (P41240 2-450 limits assumed): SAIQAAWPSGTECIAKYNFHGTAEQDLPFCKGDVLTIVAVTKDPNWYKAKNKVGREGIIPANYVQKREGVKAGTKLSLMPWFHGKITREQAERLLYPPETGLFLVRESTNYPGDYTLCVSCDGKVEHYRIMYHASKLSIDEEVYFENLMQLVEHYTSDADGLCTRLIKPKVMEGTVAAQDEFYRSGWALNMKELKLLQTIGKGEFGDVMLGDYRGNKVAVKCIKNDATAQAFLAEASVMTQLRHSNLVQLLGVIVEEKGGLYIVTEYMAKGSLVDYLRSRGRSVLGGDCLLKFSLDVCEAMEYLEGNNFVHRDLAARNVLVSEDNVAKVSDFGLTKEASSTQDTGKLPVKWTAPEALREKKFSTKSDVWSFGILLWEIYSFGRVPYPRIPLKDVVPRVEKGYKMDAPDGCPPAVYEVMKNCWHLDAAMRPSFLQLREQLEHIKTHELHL

[12] = molecular target: Casein kinase I isoform gamma-2 (Homo sapiens) (UniProt P78368); assay: Inhibition of recombinant human full-length His-tagged CSNK1G2 expressed in baculovirus expression system at 2 uM using Ser/Thr 05 as substrate measured after 1 hr by Z'-LYTE assay relative to control
mTORC2 (Homo sapiens) [13] = molecular target: T1, mTORC2 (Homo sapiens); conditions: U-87 MG, dose 0.025-2 µmol/L, time 6.0 hrs; remark: listed apart in the source
[14] = molecular target: Mitogen-activated protein kinase kinase kinase 9 (Homo sapiens) (UniProt P80192); assay: Inhibition of recombinant human GST-tagged MAP3K9 (1-500 residues) expressed in insect cells at 2 uM using Ser/Thr 07 as substrate measured after 1 hr by Z'-LYTE assay relative to control; conditions: Insect cell
Chain of Mitogen-activated protein kinase kinase kinase 9 (Homo sapiens) (P80192 whole entry, looked up, the tested form may be a part): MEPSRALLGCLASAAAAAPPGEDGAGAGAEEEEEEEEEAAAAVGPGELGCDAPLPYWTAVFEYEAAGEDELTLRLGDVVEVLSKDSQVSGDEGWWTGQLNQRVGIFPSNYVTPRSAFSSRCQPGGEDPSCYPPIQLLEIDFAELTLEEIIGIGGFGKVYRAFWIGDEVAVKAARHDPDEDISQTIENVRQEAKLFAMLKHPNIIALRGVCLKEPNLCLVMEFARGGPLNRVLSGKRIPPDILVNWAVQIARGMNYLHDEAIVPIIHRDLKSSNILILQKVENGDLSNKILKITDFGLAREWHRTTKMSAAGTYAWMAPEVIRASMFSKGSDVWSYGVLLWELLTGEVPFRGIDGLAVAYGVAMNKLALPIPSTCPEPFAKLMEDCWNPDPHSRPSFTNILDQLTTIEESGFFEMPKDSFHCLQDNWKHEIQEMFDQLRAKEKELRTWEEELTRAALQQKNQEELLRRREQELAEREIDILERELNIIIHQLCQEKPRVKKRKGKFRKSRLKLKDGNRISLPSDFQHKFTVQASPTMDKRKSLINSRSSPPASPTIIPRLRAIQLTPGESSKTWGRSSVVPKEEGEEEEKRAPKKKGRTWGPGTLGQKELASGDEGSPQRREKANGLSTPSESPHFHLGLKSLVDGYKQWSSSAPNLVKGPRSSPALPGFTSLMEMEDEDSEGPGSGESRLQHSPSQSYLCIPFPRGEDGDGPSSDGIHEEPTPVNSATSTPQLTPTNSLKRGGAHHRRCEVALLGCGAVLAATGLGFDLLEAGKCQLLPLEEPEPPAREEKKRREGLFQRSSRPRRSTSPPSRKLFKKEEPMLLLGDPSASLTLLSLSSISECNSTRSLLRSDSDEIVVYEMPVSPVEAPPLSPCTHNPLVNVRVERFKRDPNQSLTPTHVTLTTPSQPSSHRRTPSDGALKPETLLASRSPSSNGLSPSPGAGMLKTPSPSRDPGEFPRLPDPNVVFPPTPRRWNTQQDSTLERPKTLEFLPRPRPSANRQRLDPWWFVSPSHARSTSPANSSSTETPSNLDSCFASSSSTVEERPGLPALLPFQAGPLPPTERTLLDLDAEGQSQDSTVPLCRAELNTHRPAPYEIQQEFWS

[15] = molecular target: Insulin receptor-related protein (Homo sapiens) (UniProt P14616); assay: Inhibition of recombinant human GST-tagged INSRR (944-1297 residues) expressed in insect cells at 2 uM using Tyr 04 as substrate measured after 1 hr by Z'-LYTE assay relative to control; conditions: Insect cell
HT-29 = assay: Antitumor activity against human HT-29 cells xenografted in female nude mouse model assessed as suppression in P-AKT at S473 level at 50 mg/kg, iv administered once a week and measured at least 8 hrs by immunoblot analysis; format: functional, organism-based
[16] = molecular target: Serine/threonine-protein kinase Nek9 (Homo sapiens) (UniProt Q8TD19); assay: Inhibition of recombinant human GST-tagged NEK9 (347-732 residues) expressed in insect cells at 2 uM using Ser/Thr 07 as substrate measured after 1 hr by Z'-LYTE assay relative to control; conditions: Insect cell
Chain of Serine/threonine-protein kinase Nek9 (Homo sapiens) (Q8TD19 whole entry, the tested form may be a part): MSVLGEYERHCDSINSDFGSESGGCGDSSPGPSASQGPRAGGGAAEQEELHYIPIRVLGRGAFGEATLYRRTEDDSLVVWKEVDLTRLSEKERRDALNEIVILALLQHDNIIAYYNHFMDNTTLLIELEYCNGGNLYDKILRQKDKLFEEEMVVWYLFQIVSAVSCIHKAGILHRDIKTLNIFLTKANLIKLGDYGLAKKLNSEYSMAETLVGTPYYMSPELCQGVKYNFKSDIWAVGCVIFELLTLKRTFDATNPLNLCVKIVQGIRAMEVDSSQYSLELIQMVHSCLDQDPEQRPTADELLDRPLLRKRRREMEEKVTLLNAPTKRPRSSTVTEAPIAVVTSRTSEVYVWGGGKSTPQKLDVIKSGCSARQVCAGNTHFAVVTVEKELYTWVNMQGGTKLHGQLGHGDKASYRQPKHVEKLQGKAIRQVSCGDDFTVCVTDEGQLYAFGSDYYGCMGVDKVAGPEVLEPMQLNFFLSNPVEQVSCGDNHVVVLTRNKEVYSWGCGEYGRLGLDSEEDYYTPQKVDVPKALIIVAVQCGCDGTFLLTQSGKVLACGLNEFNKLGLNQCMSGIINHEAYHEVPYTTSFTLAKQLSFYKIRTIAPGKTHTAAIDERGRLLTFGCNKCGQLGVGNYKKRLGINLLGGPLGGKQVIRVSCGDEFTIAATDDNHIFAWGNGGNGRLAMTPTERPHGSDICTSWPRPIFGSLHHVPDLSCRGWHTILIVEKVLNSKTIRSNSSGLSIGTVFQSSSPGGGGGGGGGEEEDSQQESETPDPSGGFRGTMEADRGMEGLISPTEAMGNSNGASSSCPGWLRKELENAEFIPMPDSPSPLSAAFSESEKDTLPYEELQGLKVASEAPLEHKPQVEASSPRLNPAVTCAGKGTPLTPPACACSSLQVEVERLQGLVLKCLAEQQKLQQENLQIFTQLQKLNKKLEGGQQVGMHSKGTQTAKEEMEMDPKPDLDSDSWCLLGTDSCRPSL

MDA-MB-361 [17] = assay: Induction of apoptosis in PI3K/mTOR hyperactive human MDA-MB-361 cells assessed as cell death at 0.001 to 100 micromol/L incubated for 24 hrs by FACS analysis; format: functional, cell-based; conditions: dose 0.001-100 µmol/L
MDA-MB-361 [18] = assay: Induction of apoptosis in human MDA-MB-361 cells assessed as increase in G1 phase at 5 micromol/L incubated for 24 hrs by FACS analysis relative to control; format: functional; conditions: dose 5 µmol/L, at 5 µM
[19] = molecular target: Angiopoietin-1 receptor (Homo sapiens) (UniProt Q02763); assay: Inhibition of recombinant human GST-tagged TEK (817-1101 residues) expressed in insect cells at 2 uM using […] as substrate measured after 1 hr by Z'-LYTE assay relative to control; conditions: Insect cell
[20] = molecular target: Serine/threonine-protein kinase PAK 4 (Homo sapiens) (UniProt O96013); assay: Inhibition of recombinant human GST-tagged PAK4 (295-591 residues) expressed in insect cells at 2 uM using Ser/Thr 20 as substrate measured after 1 hr by Z'-LYTE assay relative to control; conditions: Insect cell
MDA-MB-361 [21] = assay: Induction of apoptosis in PI3K/mTOR hyperactive human MDA-MB-361 cells assessed as massive cell death at 0.001 to 100 micromol/L incubated for 48 hrs by FACS analysis; format: functional, cell-based; conditions: dose 0.001-100 µmol/L
[22] = molecular target: Protein kinase C zeta type (Homo sapiens) (UniProt Q05513); assay: Inhibition of recombinant human PRKCZ at 2 uM using Ser/Thr 07 as substrate measured after 1 hr by Z'-LYTE assay relative to control
[23] = molecular target: Interleukin-1 receptor-associated kinase 4 (Homo sapiens) (UniProt Q9NWZ3); assay: Inhibition of recombinant human full-length His-tagged IRAK4 expressed in insect cells at 2 uM using Ser/Thr 07 as substrate measured after 1 hr by Z'-LYTE assay relative to control; conditions: Insect cell
PC3MM2 = assay: Antitumor activity against human PC3MM2 cells assessed as block the hypoxia-induced VEGF production in low oxygen at 0.3 micromol/L incubated for 24 hrs by ELISA analysis; format: functional, cell-based; conditions: dose 0.3 µmol/L

For `CNC(=O)Nc1ccc(-c2nc(N3CC4CCC(C3)O4)c3cnn(C4CCC5(CC4)OCCO5)c3n2)cc1`, the inhibition [1] was 15%, the Activity (MDA-MB-361 [2]) was “Active” and the inhibition [3] was 7%. The inhibition [4] was 2%, the inhibition (A549) was “Dose-Dependent Effect” and the inhibition [5] was 8%. The inhibition [6] was 14%, the inhibition [7] was 1% and the inhibition [8] was -5%. The inhibition (mTORC2 (Homo sapiens) [9]) was “Active”, the inhibition [10] was 8% and the inhibition [11] was -1%. The inhibition [12] was -6%, the inhibition (mTORC2 (Homo sapiens) [13]) was “inactive” and the inhibition [14] was 11%. For the same molecule, the inhibition [15] was 6%, the Activity (HT-29) was “Active” and the inhibition [16] was -2%. For the same molecule, the Activity (MDA-MB-361 [17]) was “Active”, the Activity (MDA-MB-361 [18]) was 12% and the inhibition [19] was 10%. For the same molecule, the inhibition [20] was 13%, the Activity (MDA-MB-361 [21]) was “Active” and the inhibition [22] was 8%. The inhibition [23] was 3% and the Activity (PC3MM2) was “Active”.
